Test results taken from patent US20250230129A1, “POLYAMIDE COMPOUNDS, METHOD FOR PREPARING SAME, AND MEDICAL USE THEREOF” (priority 2022, published 2025).
pEC50, pKi: −log10 of the molar value. Read-outs that look alike come from different tables or passages of the source. Square brackets hold non-standard residues; d marks the D form. Peptide text beside a SMILES is read from it. * marks the point of attachment. Piperidin1yl(4-NH2,4-COOH) = NC1(C(=O)O)CCN(*)CC1; dPhLac = O=C(O)[C@H](O)Cc1ccccc1; X4 = COC(=O)NC1CCN(*)CC1

Key:
[1] = PK and blood-brain barrier permeability in mice; assay type: in vivo; details: male ICR mice, intravenous 1 mg/kg
Procedure: The compounds of the present disclosure were investigated for pharmacokinetic characteristics and blood-brain barrier permeability in mice.
Healthy male ICR mice were randomly grouped, 6 animals per group. For each test compound, 3 groups of animals were used. The first group of animals was used for collecting blood and brain 5 min after the administration, and the second group of animals and the third group of animals were used for cross blood collection at subsequent time points; each test compound was intravenously administered (1 mg/kg) to corresponding groups of mice, and blood sampling via submaxillary veins of the mice was carried out at different time points. Drug contents in plasma and brain tissues at different time points were measured by an LC-MS/MS method, the brain-to-blood ratio B/P was calculated by using EXCEL software, and pharmacokinetic parameters were calculated by using DAS3.0 software.

[2] = target: κ receptor (Homo sapiens (Human), UniProt P41145); test: Competitive Kappa receptor binding assay (3H-U69593)
[3] = target: δ receptor (Homo sapiens (Human), UniProt P41143); test: Competitive delta receptor binding assay (3H-DADLE)
[4] = target: μ receptor (Homo sapiens (Human), UniProt P35372); test: μ receptor affinity assay (3H-DAMGO); assay type: binding
[5] = target: κ-opioid receptor (Kappa) (Homo sapiens (Human), UniProt P41145); test: In vitro functional assay, HTRF cAMP-Gi in CHO-K1-OPRK1 cells; assay type: cell-based
[6] = read-out: In vitro agonistic effects on k-opioid receptors EC50
[7] = CHO-K1-OPRK1 cells, cAMP, 1 μM Forskolin, read-out: In vitro agonistic effects on k-opioid receptors EC50
[8] = CHO-K1-Kappa membranes, 3H-U69593 2 nM, read-out: κ receptor Ki
[9] = CHO-K1-delta membranes, 3H-DADLE 4 nM, read-out: δ receptor Ki
[10] = CHO-K1-μ membranes, 3H-DAMGO 2 nM, read-out: μ receptor Ki

SMILES	pKi [2]	pKi [3]	pKi [4]	pEC50 [5]	also measured
CC(C)C[C@@H](NC(=O)[C@@H](Cc1ccccc1)NC(=O)[C@H](N)Cc1ccccc1)C(=O)N[C@H](CCCCN)C(=O)N1CCC(N)(C(=O)O)CC1 [CR845, D-Phe-D-Phe-D-Leu-D-Lys-[ω(4-aminopiperidine-4-carboxylic acid)]-OH, reference compound]	–	–	–	–	B/P (brain-to-blood ratio) ([1]; blood and brain 5 min after administration): 0.015; AUC(0-inf) ([1]; mouse, plasma): 653 ng·h/mL; Vd ([1]; mouse, plasma): 0.6 L/kg; clearance ([1]; mouse, plasma): 27 mL/min/kg; half-life ([1]; mouse, plasma, read-out: t½ (converted)): 15.6 min; Cmax ([1]; mouse, plasma): 1620 ng/mL
CC(C)C[C@@H](NC(=O)[C@@H](Cc1ccccc1)NC(=O)[C@H](O)Cc1ccccc1)C(=O)N[C@H](CCCCN)C(=O)N1CCC(N)(C(=O)O)CC1 [Compound 3] (H-[dPhLac][dF][dL][dK]-{Piperidin1yl(4-NH2,4-COOH)})	8.48	< 6.00	< 6.00	–	–
CC(C)C[C@@H](NC(=O)[C@@H](Cc1ccccc1)NC(=O)C[C@H](N)c1ccccc1)C(=O)N[C@H](CCCCN)C(=O)N1CCC(N)(C(=O)O)CC1 [Compound 4-100, 4-amino-1-[(2R)-6-amino-2-[(2R)-2-[(2R)-2-[(3S)-3-amino-3-phenylpropionylamino]-3-phenylpropionylamino]-4-methylpentanoylamino]hexanoyl]piperidine-4-carboxylic acid]	7.22	< 6.00	< 6.00	–	–
COC(=O)N=S1(=O)CCN(C(=O)[C@@H](CCCCN)NC(=O)[C@@H](CC(C)C)NC(=O)[C@@H](Cc2ccccc2)NC(=O)[C@H](N)Cc2ccccc2)CC1 [Compound 4B]	8.73	< 6.00	< 6.00	9.19	–
COC(=O)NC1CCN(C(=O)[C@@H](C)NC(=O)[C@@H](CC(C)C)NC(=O)[C@@H](Cc2ccccc2)NC(=O)[C@H](N)Cc2ccccc2)CC1 [Compound 12A] (H-[dF][dF][dL][dA]-X4)	9.47	< 6.00	< 6.00	10.15	–
COC(=O)C1(N)CCN(C(=O)[C@@H](CCCCN)NC(=O)[C@@H](CC(C)C)NC(=O)[C@@H](Cc2ccccc2)NC(=O)N(C)C(CN)c2ccccc2)CC1 (stereo partly shown) [Compound 14]	8.96	< 6.00	< 6.00	8.09	–
CC(C)C[C@@H](NC(=O)[C@@H](Cc1ccccc1)NC(=O)N(C)C(CN)c1ccccc1)C(=O)C[C@H](CCCCN)C(=O)N1CCC(N)(C(=O)OC(C)C)CC1 (stereo partly shown) [Compound 15]	–	–	–	–	pEC50 [5, 6]: 9.20; pKi ([2]; read-out: κ receptor Ki): 9.08; pKi ([3]; read-out: δ receptor Ki): < 6.00; pKi ([4]; read-out: μ receptor Ki): < 6.00
CNC(=O)NC1CCN(C(=O)[C@@H](CCCCN)NC(=O)[C@@H](CC(C)C)NC(=O)[C@@H](Cc2ccccc2)NC(=O)N(CCN)Cc2ccccc2)CC1 [Compound 17]	9.36	< 6.00	< 6.00	9.52	–
CC(C)C[C@@H](NC(=O)[C@@H](Cc1ccccc1)NC(=O)N(CCN)Cc1cccnc1)C(=O)C[C@H](CCCCN)C(=O)N1CCC(N)(C(=O)O)CC1 [Compound 18]	–	–	–	–	pEC50 [5, 6]: 9.74; pKi ([2]; read-out: κ receptor Ki): 9.68; pKi ([3]; read-out: δ receptor Ki): < 6.00; pKi ([4]; read-out: μ receptor Ki): < 6.00
CC(C)C[C@@H](NC(=O)[C@@H](Cc1ccccc1)NC(=O)N(CCN)Cc1cncnc1)C(=O)C[C@H](CCCCN)C(=O)N1CCC(N)(C(=O)O)CC1 [Compound 19]	–	–	–	–	pEC50 [5, 6]: 9.06; pKi ([2]; read-out: κ receptor Ki): 9.05; pKi ([3]; read-out: δ receptor Ki): < 6.00; pKi ([4]; read-out: μ receptor Ki): < 6.00
CN=S1(=O)CCN(C(=O)[C@@H](CCCCN)NC(=O)[C@@H](CC(C)C)NC(=O)[C@@H](Cc2ccccc2)NC(=O)N(CCN)Cc2ccccc2)CC1 [Compound 20]	9.24	< 6.00	< 6.00	9.28	–
CC(C)C[C@@H](NC(=O)[C@@H](Cc1ccccc1)NC(=O)N(CCN)Cc1ccccc1)C(=O)N[C@H](CCCCN)C(=O)N1CCC2(CC1)OC(=O)Nc1ncccc12 [Compound 22]	–	–	–	–	pEC50 [5, 7]: 9.44; pKi [2, 8]: 9.46; pKi [3, 9]: < 6.00; pKi [4, 10]: < 6.00
CC(C)C[C@@H](NC(=O)[C@@H](Cc1ccccc1)NC(=O)N(CCN)Cc1ccccc1)C(=O)N[C@H](CCCCN)C(=O)N1CCC(NC(=O)OC2CCOCC2)CC1 [Compound 24]	9.44	< 6.00	< 6.00	9.57	–
CNS(=O)(=O)NC1CCN(C(=O)[C@@H](CCCCN)NC(=O)[C@@H](CC(C)C)NC(=O)[C@@H](Cc2ccccc2)NC(=O)N(CCN)Cc2ccccc2)CC1 [Compound 26]	–	–	–	–	pEC50 [5, 7]: 9.60; pKi [2, 8]: 9.51; pKi [3, 9]: < 6.00; pKi [4, 10]: < 6.00
CNCCN(Cc1ccccc1)C(=O)N[C@H](Cc1ccccc1)C(=O)N[C@H](CC(C)C)C(=O)C[C@H](CCCCN)C(=O)N1CCC(N)(C(=O)O)CC1 [Compound 28]	–	–	–	–	pKi ([2]; read-out: κ receptor Ki): 8.48; pKi ([3]; read-out: δ receptor Ki): < 6.00; pKi ([4]; read-out: μ receptor Ki): < 6.00
CC(C)C[C@@H](NC(=O)[C@@H](Cc1ccccc1)NC(=O)N(C)C(CN)c1ccccc1)C(=O)N[C@H](CCCCN)C(=O)N1CCC2(CC1)CNC(=O)c1ncccc12 (stereo partly shown) [Compound 32]	9.24	< 6.00	< 6.00	9.19	–
CC(C)C[C@@H](NC(=O)[C@@H](Cc1ccccc1)NC(=O)N(C)C(CN)c1ccccc1)C(=O)N[C@H](CCCCN)C(=O)N1CCC(NC(=O)OC2CCOCC2)CC1 (stereo partly shown) [Compound 33]	9.25	< 6.00	< 6.00	9.09	–
CC(C)C[C@@H](NC(=O)[C@@H](Cc1ccccc1)NC(=O)N(CCN)Cc1ccccc1)C(=O)N[C@H](CCCCN)C(=O)N1CCC(F)(C(=O)O)CC1 [Compound 34]	9.22	< 6.00	< 6.00	9.15	–
CC(C)C[C@@H](NC(=O)[C@@H](Cc1ccccc1)NC(=O)N(CCN)Cc1ccccc1)C(=O)N[C@H](CCCCN)C(=O)N1CCC(C#N)CC1 [Compound 35]	9.74	< 6.00	< 6.00	9.77	–
CC(C)C[C@@H](NC(=O)[C@@H](Cc1ccccc1)NC(=O)N(C)C(CN)c1ccccc1)C(=O)N[C@H](CCCCN)C(=O)N1CCS(=O)(=O)CC1 (stereo partly shown) [Compound 36]	9.01	< 6.00	< 6.00	9.46	–
CC(C)C[C@@H](NC(=O)[C@@H](Cc1ccccc1)NC(=O)N(C)C(CN)c1ccccc1)C(=O)N[C@H](CCCCN)C(=O)N1CCOCC1 (stereo partly shown) [Compound 37]	9.39	< 6.00	< 6.00	9.41	–
CC(C)C[C@@H](NC(=O)[C@@H](Cc1ccccc1)NC(=O)N(C)C(CN)c1ccccc1)C(=O)N[C@H](CCCCN)C(=O)N1CCNCC1 (stereo partly shown) [Compound 38]	9.77	< 6.00	< 6.00	9.27	–
CC(C)C[C@@H](NC(=O)[C@@H](Cc1ccccc1)NC(=O)N(CCN)Cc1ccccc1)C(=O)N[C@H](CCCCN)C(=O)N1CCOCC1 [Compound 39]	9.57	< 6.00	< 6.00	9.46	–
CC(C)C[C@@H](NC(=O)[C@@H](Cc1ccccc1)NC(=O)N(CCN)Cc1ccccc1)C(=O)N[C@H](CCCCN)C(=O)N1CCNCC1 [Compound 40]	9.24	< 6.00	< 6.00	9.89	–
COC(=O)NC1CCN(C(=O)[C@@H](C)NC(=O)[C@@H](CC(C)C)NC(=O)[C@@H](Cc2ccccc2)NC(=O)N(CCN)Cc2ccccc2)CC1 [Compound 42]	9.33	< 6.00	< 6.00	9.34	–
CC(=O)N(CCCN)C1CCN(C(=O)[C@@H](C)CC(=O)[C@@H](CC(C)C)NC(=O)[C@H](CC(=O)N(CCN)Cc2ccccc2)Cc2ccccc2)CC1 [Compound 44]	–	–	–	–	pEC50 [5, 6]: 10.05; pKi ([2]; read-out: κ receptor Ki): 9.26; pKi ([3]; read-out: δ receptor Ki): < 6.00; pKi ([4]; read-out: μ receptor Ki): < 6.00
